Experimental data from patent US7026518B2 (Laila Impex, priority 2002, dated 2006).

Assays:
[1] = Superoxide scavenging activity (NBT), McCord and Fridovich method; conditions: light induced superoxide generation by riboflavin, reduction of NBT
Method: Antioxidant (superoxide scavenging) activity of these compounds are determined by conventional methods like McCord and Fridovich method, which is based on light induced superoxide generation by riboflavin and corresponding reduction of NBT. The assay mixture contains phosphate buffer, EDTA, NBT and riboflavin. Different concentrations of these compounds were assessed and their optical densities measured before and after illumination. The percentage value of inhibition of superoxide production by the compounds of this invention was evaluated and compared with the absorbance value of control and experimental data.

Row | SMILES | melting point | Superoxide scavenging activity (NBT) IC50 [1]
1 | O=C(Oc1cc(/C=C/c2ccc(O)cc2)cc(OC(=O)c2cc(O)c(O)c(O)c2)c1)c1cc(O)c(O)c(O)c1 [Compound 5, 3-[(1E)-2-(4-hydroxyphenyl)vinyl]-5-(3,4,5trihydroxyphenylcarbonyloxy)-phenyl 3,4,5-trihydroxybenzoate] | – | 17.5 µg/mL
2 | O=C(/C=C/c1ccc(O)c(O)c1)Oc1cc(O)cc(/C=C/c2ccc(O)cc2)c1 [Compound 6, 5-[(1E)-2-(4-hydroxyphenyl)vinyl]-3-hydroxyphenyl(2E)-3(3,4-dihydroxyphenyl) prop-2-enoate] | – | 9.2 µg/mL
3 | CN(C)CCOc1cc(O)cc(/C=C/c2ccc(O)cc2)c1 [Compound 8, 3-[(1E)-2-(4-hydroxyphenyl)vinyl]-5-[2-(dimethylamino)ethoxy] phenol] | 92 to 94 °C | 34.1 µg/mL
4 | Cl.NCC(=O)Oc1cc(O)cc(/C=C/c2ccc(O)cc2)c1 [Compound 9, 5-[(1E)-2-(4-hydroxyphenyl)vinyl]-3-hydroxyphenyl 2-aminoacetate hydrochloride] | – | 29.3 µg/mL

Results, then the compound that gave them:

Row | melting point | Superoxide scavenging activity (NBT) IC50 [1] | SMILES
5 | 150 to 152 °C | 3.0 µg/mL | Oc1ccc(/C=C/c2cc(O)c(O)c(O)c2)cc1O [Compound 1, 5-[(1E)-2-(3,4-dihydroxyphenyl)vinyl]-benzene1,2,3-triol]
6 | 180 to 182 °C | 8.1 µg/mL | Oc1cc(/C=C/c2cc(O)c(O)c(Br)c2)cc(O)c1O [Compound 2, 5-[(1E)-2-(5-Bromo-3,4-dihydroxyphenyl)vinyl]-benzene1,2,3-triol]
7 | – | 0.9 µg/mL | Oc1cc(/C=C/c2cc(O)c(O)c(O)c2)cc(O)c1O [Compound 3, 5-[(1E)-2-(3,4,5-trihydroxyphenyl)vinyl]-benzene1,2,3-triol]
8 | – | 16.0 µg/mL | O=C(Oc1cc(O)cc(/C=C/c2ccc(O)cc2)c1)c1cc(O)c(O)c(O)c1 [Compound 4, 5-[(1E)2-(4-hydroxyphenyl)vinyl]-3-hydroxyphenyl 3,4,5-trihydroxybenzoate]
9 | – | 10.0 µg/mL | O=C(/C=C/c1cc(O)c(O)c(O)c1)Oc1cc(O)cc(/C=C/c2ccc(O)cc2)c1 [Compound 7, 5-[(1E)-2-(4-hydroxyphenyl)vinyl]-3-hydroxyphenyl(2E)3(3,4,5-trihydroxyphenyl) prop-2-enoate]
